According to patent US20250262199A1, “TREATMENT OF AUTOIMMUNE SKIN DISEASE” (ASLAN PHARMACEUTICALS PTE LTD, priority 2022, published 2025):

Tests used:
Assay type in all cases: in vivo
[1] = test system: Alopecia areata mouse model (C3H/HeJ mice); test: Hair coverage in Alopecia areata mouse model (C3H/HeJ skin graft); details: 150 or 300 mg/kg/day once daily oral gavage, week 8 time point (10 weeks after engraftment), vs vehicle; interim data; FIG. 3
Protocol: The C3H/HeJ mouse strain is known to spontaneously develop alopecia (AA) at a low frequency over a prolonged time frame. Transplantation of AA-affected skin from a C3H/HeJ mouse to unaffected C3H/HeJ recipients will induce the development of AA in nearly 100% of recipients over 4-8 weeks. Accordingly, to produce the AA mouse model, AA-affected C3H/HeJ skin was grafted onto groups of unaffected C3H/HeJ mice. The following treatment groups (n=10 per treatment group) were tested: • 1. Vehicle 0.5% methylcellulose (negative control) • 2. 150 mg/kg/day farudostat • 3. 300 mg/kg/day farudostat Treatments were administered once daily by oral gavage starting 2 weeks after engraftment and concluded after 12 weeks (84 days) of treatment. Photographs were taken at baseline, and every 4 weeks until the end of study Ventral hair growth was scored based on the photographs. Any mouse that had >98% hair coverage was classified as ‘no hair loss’.

[2] = test system: vitiligo mouse model (transgenic Krt14-KitL* (SCF) mice); test: Vitiligo scoring in vitiligo mouse model; details: oral gavage, 6 weeks (30 treatment days), FIG. 1
PMEL T cells = test: Flow cytometry of PMEL T cell counts in tissues of vitiligo mouse model

Compound: COc1cccc(-c2cc(F)c(Nc3ncccc3C(=O)O)c(F)c2)c1 [farudostat, 2-(3,5-difluoro-3′-methoxybiphenyl-4-ylamino) nicotinic acid]
- mean % hair coverage [1]: slight improvement in % hair coverage
- final mean vitiligo score ([2]; 75 mg/kg/day, vs vehicle): improvement in vitiligo score
- final mean vitiligo score ([2]; 150 mg/kg/day, vs vehicle and 75 mg/kg/day group): greater improvement in vitiligo score compared to the 75 mg/kg/day group
- mean PMEL count, 150 mg/kg/day compared to 75 mg/kg/day (PMEL T cells; 150 mg/kg/day, oral gavage, FIGS. 2A to 2D): greater reduction in mean PMEL count compared to 75 mg/kg/day
- mean PMEL T cell count, dermis (PMEL T cells; farudostat 75 and 150 mg/kg/day, oral gavage, end of experiment, FIG. 2B): reduction in mean Pmel T cell count
- mean PMEL T cell count, epidermis (PMEL T cells; farudostat 75 and 150 mg/kg/day, oral gavage, end of experiment, FIG. 2C): reduction in mean Pmel T cell count
- mean PMEL count, spleen (PMEL T cells; spleen, compared with anti-IFNγ positive control, FIG. 2D): reduction in mean PMEL count in the spleen that was even greater than that observed for anti-IFNγ
